This note sets out measurements from US20250235501A1, “Methods and Compositions for Treating or Preventing Neurological Injury or Neurological Disorders” (University of Connecticut, priority 2024, published 2025).

Experiment [1] has as its system ERK1/2 and CREB activities (pERK1/2, pCREB). Put plainly: ERK1/2 and CREB activities in cultured neurons (WB). The settings on record: WT neurons pre-incubated with peptide overnight, vs control. The experiment is classed as cell-based, mouse. As to the method: FIGS. 7F-7H show the effects of TAT-EE3 on ERK1/2 and CREB activities in cultured neurons isolated from gM2KO and nM2KO mice, and WT littermates. WT neurons were treated with TAT-EE3 or TAT-SC for overnight before the experiments. Neurons were incubated for 1 h before experiments with 1) control (PBS), 2) NMDA (10 μM) to activate synaptic and extrasynaptic NMDARs, and 3) 4-AP 2.5 mM plus biccuculine (Bic) 50 μM (4-AP/Bic) to activate synaptic NMDARs. […] FIGS. 7G and 7H show the quantification of the active CERB and ERK1/2 in each group under three different treatment conditions (***, p<0.001; ANOVA, Bonferroni's test; mean±SEM, n=3).
(§1) Mice pups at P0 were euthanized based on animal protocol. Whole brain was dissected out immediately and immersed in ice-cold Hank's Balanced Salt Solution (HBSS). Meninges were removed thoroughly, and tissue of different brain areas was taken based on purposes. Brain tissue was cut into small pieces and digested with 0.25% trypsin (Thermal Fisher Scientific, 15090-046) in HBSS at 37° C. for 20 min. Digestion solution was quickly removed, and tissue pellets are washed with Neurobasal® Medium (Thermal Fisher Scientific, 21103-049) for 3 times. Cells were resuspended with appropriate amount of Neurobasal® Medium supplemented with 2% B27® supplement (Thermal Fisher Scientific, 17504-044), 3% horse serum (Thermal Fisher Scientific, 16050114), 0.25% L-glutamine (Thermal Fisher Scientific, 25030-081) and 1% penicillin/streptomycin (Thermal Fisher Scientific, 15140-122). Isolated cells were counted and plated on coverslips pre-coated with poly-L-lysine (Sigma-Aldrich, P4707) at a density about 500×10^3 cells/cm2 for OGD and H2O2 treatment, and 100×10^3 cells/cm2 for current recording. Cytosine arabinoside (Sigma-Aldrich, C1768) was added to maintain a concentration at 1 μM to inhibit the proliferation of non-neuronal cells. 24 h after plating, culture medium was changed to Neurobasal® Medium supplemented with 2% B27® supplement, 0.25% L-glutamine and 1% penicillin/streptomycin. The concentration of Cytosine arabinoside (araC) was increased to 2 μM. Medium was changed every 3 days. OGD and H2O2 treatment was conducted at 7th day of culture, and current recording was conducted at 7th, 10th and 14th day of culture.
NP-40/Triton lysis buffer ([…], 1% Triton™ X-100, 150 mM NaCl, 1 mM EDTA, 50 mM Tris, pH=8.0) containing proteinase inhibitors and phosphatase inhibitors was used to lyse both cultured cells and frozen brain tissue. […] Protein concentration was measured using Pierce™ Rapid Gold BCA Protein Assay Kit.
30-50 μg of total protein was loaded and separated proteins were transferred to Nitrocellulose membranes. […] Band intensity was quantified using ImageJ software and normalized with appropriate loading controls.

The test system of another experiment is NMDARs. The experiment can be described thus: NMDAR currents in cultured cortical neurons of WT and TRPM2-KO mice (whole cell recording). The experiment is classed as cell-based, mouse. As to the method: FIGS. 4O and 4P show the effects of stausporine on NMDAR currents recorded from cortical neurons cultured for 14 days. FIG. 4O show representative NMDAR currents elicited at −80 mV by 10 μM NMDA in WT and TRPM2-KO (gM2KO) neurons treated with or without Stausporine at 1 μM for overnight. FIG. 4P show the average current amplitude (ns, p>0.05; **, p<0.01; ANOVA, Bonferroni's test; mean±SEM, n=11, 10, 10, 12 neurons from 2 mice respectively).
FIG. 4S show representative NMDAR currents elicited by NMDA in WT and TRPM2-KO neurons treated with or without endosidin2 at 1 μM for overnight.
FIGS. 5I-5K show the effects of TAT-EE3 on PKC induced changes of NMDAR currents recorded in cortical neurons of WT and TRPM2-KO. Neurons were incubated with 10 μM TAT-SC or TAT-EE3 for overnight before current recording. FIG. 5I show representative NMDAR currents elicited by 10 μM NMDA at −80 mV before and after PMA (1 μM) perfusion for 20 s. TAT-SC or TAT-EE3 10 μM was included in the pipette solution for current recording.
FIGS. 6A and 6B show the effects of TAT-EE3 on NMDAR currents in WT and gM2KO cortical neurons cultured for 14 days. […] TAT-SC or TAT-EE3 10 μM was included in the pipette solution during current recording.
as §1
Whole cell currents were recorded using an Axopatch 200B amplifier. Data were digitized at 10 or 20 kHz and digitally filtered offline at 1 kHz. Patch electrodes were pulled from borosilicate glass and fire-polished to a resistance of ˜3 MΩ when filled with internal solutions. Series resistance (Rs) was compensated up to 90% to reduce series resistance errors to <5 mV. Cells in which Rs was >10 MΩ were discarded (Du, J., Xie, J., and Yue, L. (2009). Modulation of TRPM2 by acidic pH and the underlying mechanisms for pH sensitivity. J Gen Physiol 134, 471-88).
For heterologous expression, transfected HEK-293 cells were identified by GFP fluorescence. TRPM2 current recording in transfected HEK-293T cells was performed as we previously reported (Du, J., Xie, J., and Yue, L. (2009). Intracellular calcium activates TRPM2 and its alternative spliced isoforms. Proceedings of the National Academy of Sciences 107, 7239-44; Du, J., Xie, J., and Yue, L. (2009). Modulation of TRPM2 by acidic pH and the underlying mechanisms for pH sensitivity. J Gen Physiol 134, 471-88). […]

The mark [2] stands for this setting: 4-AP 2.5 mM plus bicuculline 50 μM 1 h.
Where [3] appears, read: WT neurons incubated with 10 μM peptide overnight, PMA 1 μM 20 s.

Take “TAT-EE3: membrane permeable disrupting peptide, sequence YGRKKRRQRRREEDTDSSEEMLALAEE (SEQ ID NO: 4)”: in experiment [1] (setting [2]), the “pCREB level after 4-AP/Bic treatment” value is given as “increased” and the “pERK1/2 level after 4-AP/Bic treatment” value was “increased”. Besides, in experiment [1] (NMDA 10 μM 1 h), the “pCREB level after NMDA treatment” value is “increased” and the “pERK1/2 level after NMDA treatment” value is “increased”. In addition, the “NMDAR currents in neurons from TRPM2-KO mice” value in the experiment on NMDARs (10 μM peptide overnight and in pipette, neurons cultured 14 days) is given as “not from TRPM2-KO mice”. Moreover, the “NMDAR currents in neurons from WT mice” value in the experiment with NMDARs (10 μM peptide overnight and in pipette, neurons cultured 14 days, 10 μM NMDA, -80 mV) was “efficiently reduced”. In the experiment with NMDARs (setting [3]), the “NMDAR current amplitude before and after PMA perfusion” value is given as “much smaller”; the “increase of NMDAR current amplitude induced by PMA” value was “significantly smaller than that in neurons incubated with TAT-SC”. In the experiment on NMDARs (neurons from TRPM2-KO mice, 10 μM peptide overnight), the “PMA-induced changes of NMDAR currents, TAT-SC vs TAT-EE3” value was “no difference”.
